Measured values from ChEMBL document CHEMBL1201862, “PubChem BioAssay data set” (2004).
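In this assay, cells in 96-well plates receive the compound at five concentrations for 48 hours. Endpoints are linearly interpolated between the surrounding concentrations. Here, GI50 denotes the concentration required for 50% inhibition of growth.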 Activity calls are given as the source filed them. Rule as the data show it: active = GI50 up to about 1.1 µM and inactive = higher.

Columns and labels:
Assay in all cases: NCI-60 cell line screen, 48 h
ACHN = system: ACHN
NCI-H226 = system: NCI-H226
Malme-3M = system: Malme-3M
UO-31 = system: UO-31
SK-MEL-28 = system: SK-MEL-28
COLO 205 = system: COLO 205
NCI-H23 = system: NCI-H23
A498 = system: A498
PC-3 = system: PC-3
HCT-116 = system: HCT-116
NCI-H460 = system: NCI-H460
786-0 = system: 786-0
SN12C = system: SN12C
SNB-19 = system: SNB-19
NCI/ADR-RES = system: NCI/ADR-RES
UACC-62 = system: UACC-62
HL-60 = system: HL-60
SK-MEL-2 = system: SK-MEL-2
DU-145 = system: DU-145
MOLT-4 = system: MOLT-4

SMILES	GI50 (ACHN)	GI50 (NCI-H226)	GI50 (Malme-3M)	GI50 (UO-31)	GI50 (SK-MEL-28)	GI50 (COLO 205)	GI50 (NCI-H23)	GI50 (A498)	GI50 (PC-3)	GI50 (HCT-116)	GI50 (NCI-H460)	GI50 (786-0)	GI50 (SN12C)	GI50 (SNB-19)	GI50 (NCI/ADR-RES)	GI50 (UACC-62)	GI50 (HL-60)	GI50 (SK-MEL-2)	GI50 (DU-145)	GI50 (MOLT-4)
COc1cc2cc(C(=O)N3CC(CCl)c4c3cc(NC(=O)OCc3ccc([N+](=O)[O-])cc3)c3ccccc43)[nH]c2c(OC)c1OC (stereo not given)	< 0.0116 µM (active)	> 100 µM (inactive)	> 100 µM (inactive)	0.125 µM (active)	> 100 µM (inactive)	> 100 µM (inactive)	0.158 µM (active)	< 0.01 µM (active)	> 60 µM (inactive)	14.7 µM (inactive)	< 0.0173 µM (active)	0.785 µM (active)	> 100 µM (inactive)	> 100 µM (inactive)	3.67 µM (inactive)	> 38 µM (inactive)	0.11 µM (active)	> 69.2 µM (inactive)	0.108 µM (active)	9.73 µM (inactive)
Cc1cccc(C)c1NC(=O)/C(Cc1nc2ccc([N+](=O)[O-])cc2nc1O)=N\NC(N)=O	94 µM (inactive)	> 100 µM (inactive)	> 100 µM (inactive)	45.3 µM (inactive)	> 100 µM (inactive)	38.9 µM (inactive)	> 100 µM (inactive)	82.4 µM (inactive)	66.5 µM (inactive)	83.2 µM (inactive)	> 100 µM (inactive)	> 100 µM (inactive)	> 100 µM (inactive)	> 100 µM (inactive)	85.5 µM (inactive)	80.9 µM (inactive)	32.5 µM (inactive)	> 100 µM (inactive)	> 100 µM (inactive)	31.6 µM (inactive)
c1ccc2cc(-c3cc(-c4cc(-c5ccc6ccccc6c5)on4)no3)ccc2c1	> 100 µM (inactive)	> 100 µM (inactive)	> 100 µM (inactive)	96.8 µM (inactive)	> 100 µM (inactive)	> 100 µM (inactive)	> 100 µM (inactive)	> 100 µM (inactive)	> 100 µM (inactive)	> 100 µM (inactive)	> 100 µM (inactive)	> 100 µM (inactive)	> 100 µM (inactive)	15 µM (inactive)	> 100 µM (inactive)	> 100 µM (inactive)	> 100 µM (inactive)	> 100 µM (inactive)	> 100 µM (inactive)	88.9 µM (inactive)
CSC(=S)N/N=C(\C)c1cccc(C)n1	0.265 µM (active)	0.824 µM (active)	0.809 µM (active)	1.21 µM (inactive)	1.46 µM (inactive)	0.0513 µM (active)	0.975 µM (active)	2.21 µM (inactive)	0.265 µM (active)	0.183 µM (active)	0.456 µM (active)	0.361 µM (active)	1.28 µM (inactive)	4.04 µM (inactive)	1.36 µM (inactive)	0.472 µM (active)	0.0764 µM (active)	3.48 µM (inactive)	0.845 µM (active)	0.123 µM (active)
Cc1nccn1S(=O)(=O)c1ccc(Cl)cc1	95.9 µM (inactive)	74.8 µM (inactive)	34.8 µM (inactive)	58.3 µM (inactive)	94 µM (inactive)	19.8 µM (inactive)	39.6 µM (inactive)	36.1 µM (inactive)	99.8 µM (inactive)	30.5 µM (inactive)	41.9 µM (inactive)	> 100 µM (inactive)	37.8 µM (inactive)	> 100 µM (inactive)	43.6 µM (inactive)	55.6 µM (inactive)	22.9 µM (inactive)	72.9 µM (inactive)	81.8 µM (inactive)	56.9 µM (inactive)
O=C1Nc2c(Cl)cccc2/C1=N/Nc1ccccc1[N+](=O)[O-]	11.9 µM (inactive)	36.1 µM (inactive)	3.58 µM (inactive)	22.1 µM (inactive)	35.1 µM (inactive)	81.3 µM (inactive)	13.5 µM (inactive)	28.2 µM (inactive)	31.9 µM (inactive)	29.7 µM (inactive)	17.3 µM (inactive)	10.1 µM (inactive)	28.9 µM (inactive)	44.3 µM (inactive)	11.5 µM (inactive)	17.5 µM (inactive)	70.1 µM (inactive)	70.6 µM (inactive)	16.4 µM (inactive)	31.3 µM (inactive)
